Reference: EP4700021A1, “NOVEL COMPOUND AND PHARMACEUTICAL COMPOSITION COMPRISING SAME AS ACTIVE INGREDIENT” (Sapiensbio Inc., priority 2023, dated 2025)

System: α-SMA
Assay: in vitro α-SMA expression inhibition (immunostaining, confocal microscopy) in TGF-β1-treated MRC-5 cells
Type: cell-based, human
Conditions: Homo sapiens, TGF-β1 (5 ng/mL), 72 hours, standardized using GAPDH
Description: When scars are generated in tissue, fibroblasts undergo fibroblast-to-myofibroblast transition (FMT), and the resulting myofibroblasts produce the extracellular matrix, leading to tissue fibrosis. α-SMA is a representative biomarker of myofibroblasts, and its expression greatly increases as FMT progresses. Accordingly, through the evaluation of α-SMA expression inhibitory activity, the efficacy of the compounds in inhibiting fibrosis may be evaluated. Therefore, the inhibitory activity of the compounds of the present invention on α-SMA expression was evaluated in cells. To more accurately evaluate the inhibition of α-SMA expression, IC50 values were determined by treating human lung-derived fibroblasts (MRC-5 cells) with the compounds of the present invention in a concentration-dependent manner.
Specifically, 2 hours after the MRC-5 cells were treated with DMSO or compounds dissolved in serum containing 0.5% fetal bovine serum (FBS) in a concentration-dependent manner, fibrosis was induced by treatment with TGF-β1 (5 ng/mL). After 72 hours, the cells were immobilized with a 2% paraformaldehyde solution for 10 minutes, and to impart cell membrane permeability, a 0.1% Triton X-100 solution was treated for 10 minutes, and a 1% bovine serum albumin (BSA) solution was treated to prevent non-specific binding. For immunostaining, anti-GAPDH (BIO-RAD) was first treated as a primary antibody, and Alexa Fluor™ Plus 555 for GAPDH labeling was used as a secondary antibody. For α-SMA staining, an FITC fluorescence-tagged α-SMA primary antibody was used, and thus the increase and decrease in α-SMA caused by the compounds were evaluated. The immunohistochemical experimental results were confirmed with a STELLARIS 5 confocal microscope (Leica), and FITC-stained α-SMA was standardized using GAPDH labeled with Alexa FluorTM Plus 555 for quantification. The IC50 of the compounds according to the present invention was calculated through statistical analysis (linear mixed effects model). […]

Molecule `O=C(NCC1CC1)N1CCN(c2ccc(F)cc2)c2cc(F)ccc21` [Compound 3, N-(cyclopropylmethyl)-6-fluoro-4-(4-fluorophenyl)-3,4-dihydroquinoxaline-1(2H)-carboxamide] has an IC50 of 1 to 10 µM.
`O=C(NCC1CC1)N1CCN(c2ccc(F)cc2)c2ccccc21` [Compound 6, N-(cyclopropylmethyl)-4-(4-fluorophenyl)-3,4-dihydroquinoxaline-1(2H)-carboxamide] was tested, and the IC50 was 1 to 10 µM.
With `O=C(N1CCCC1)N1CCN(c2ccccc2Cl)c2ccccc21` [Compound 8, (4-(2-chlorophenyl)-3,4-dihydroquinoxaline-1(2H)-yl)(pyrrolidin-1-yl)methanone] the IC50 was 10 to 30 µM.
In the case of `O=C(N1CCOCC1)N1CCN(c2ccccc2Cl)c2ccccc21` [Compound 9, (4-(2-chlorophenyl)-3,4-dihydroquinoxaline-1(2H)-yl)(morpholino)methanone], the IC50 is reported as ≤ 30 µM.
`O=C(N1CCNCC1)N1CCN(c2ccccc2Cl)c2ccccc21` [Compound 10, (4-(2-chlorophenyl)-3,4-dihydroquinoxaline-1(2H)-yl)(piperazin-1-yl)methanone] was tested, and the IC50 was < 1 µM.
`CC(C)N1CC[C@H](NC(=O)N2CCN(c3ccccn3)c3ccccc32)C1` [Compound 11, (S)-N-(1-isopropylpyrrolidin-3-yl)-4-(pyridin-2-yl)-3,4-dihydroquinoxaline-1(2H)-carboxamide] was tested, and the IC50 was 1 to 10 µM.
In the case of `N[C@H]1CCN(C(=O)N2CCN(c3ccccn3)c3ccccc32)C1` [Compound 12, (S)-(3-aminopyrrolidin-1-yl)(4-(pyridin-2-yl)-3,4-dihydroquinoxaline-1(2H)-yl)methanone], the IC50 is reported as ≤ 30 µM.
In the case of `O=C(NC1CCNCC1)N1CCN(c2ccccn2)c2ccccc21` [Compound 13, N-(piperidin-4-yl)-4-(pyridin-2-yl)-3,4-dihydroquinoxaline-1(2H)-carboxamide], the IC50 is reported as 1 to 10 µM.
With `O=C(NC[C@@H]1CCNC1)N1CCN(c2ccccn2)c2ccccc21` [Compound 14, (R)-4-(pyridin-2-yl)-N-(pyrrolidin-3-ylmethyl)-3,4-dihydroquinoxaline-1(2H)-carboxamide] the IC50 was 1 to 10 µM.
With `O=C(NC[C@H]1CCCN1)N1CCN(c2ccccn2)c2ccccc21` [Compound 15, (R)-4-(pyridin-2-yl)-N-(pyrrolidin-2-ylmethyl)-3,4-dihydroquinoxaline-1(2H)-carboxamide] the IC50 was < 1 µM.
In the case of `O=C(N[C@@H]1CCOC1)N1CCN(c2cccnc2)c2ccccc21` [Compound 16, (R)-4-(pyridin-3-yl)-N-(tetrahydrofuran-3-yl)-3,4-dihydroquinoxaline-1 (2H)-carboxamide], the IC50 is reported as 1 to 10 µM.
In the case of `CN1CCC(NC(=O)N2CCN(c3ccc(F)cn3)c3ccccc32)CC1` [Compound 18, 4-(5-fluoropyridin-2-yl)-N-(1-methylpiperidin-4-yl)-3,4-dihydroquinoxaline-1(2H)-carboxamide], the IC50 is reported as 1 to 10 µM.
`O=C(N[C@H]1CCNC1)N1CCN(c2cnccn2)c2ccccc21` [Compound 19, (S)-4-(pyrazin-2-yl)-N-(pyrrolidin-3-yl)-3,4-dihydroquinoxaline-1(2H)-carboxamide] showed an IC50 of 1 to 10 µM.
`CN1CC[C@H](NC(=O)N2CCN(c3cnccn3)c3ccccc32)C1` [Compound 20, (S)-N-(1-methylpyrrolidin-3-yl)-4-(pyrazin-2-yl)-3,4-dihydroquinoxaline-1(2H)-carboxamide] was tested, and the IC50 was < 1 µM.
For `CC(C)CN1CC[C@H](NC(=O)N2CCN(c3cnccn3)c3ccccc32)C1` [Compound 22, (S)-N-(1-isobutylpyrrolidin-3-yl)-4-(pyrazin-2-yl)-3,4-dihydroquinoxaline-1(2H)-carboxamide], the IC50 was ≤ 30 µM.
Molecule `O=C(NC1CCNCC1)N1CCN(c2cnccn2)c2ccccc21` [Compound 23, N-(piperidin-4-yl)-4-(pyrazin-2-yl)-3,4-dihydroquinoxaline-1(2H)-carboxamide] has an IC50 of 1 to 10 µM.
In the case of `CC(C)CN1CCC(NC(=O)N2CCN(c3cnccn3)c3ccccc32)CC1` [Compound 27, N-(1-isobutylpiperidin-4-yl)-4-(pyrazin-2-yl)-3,4-dihydroquinoxaline-1(2H)-carboxamide], the IC50 is reported as 10 to 30 µM.
Work on `CN1CCC(NC(=S)N2CCN(c3cnccn3)c3ccccc32)CC1` [Compound 29, N-(1-methylpiperidin-4-yl)-4-(pyrazin-2-yl)-3,4-dihydroquinoxaline-1 (2H)-carbothioamide] yielded an IC50 of 1 to 10 µM.
`CN1CC[C@@H](COC(=O)N2CCN(c3cnccn3)c3ccccc32)C1` [Compound 31, (R)-(1-methylpyrrolidin-3-yl)methyl-4-(pyrazin-2-yl)-3,4-dihydroquinoxaline-1(2H)-carboxylate] showed an IC50 of 1 to 10 µM.
With `O=C(N[C@@H]1CCNC1)N1CCN(Cc2ccccc2)c2ccccc21` [Compound 33, (R)-4-benzyl-N-(pyrrolidin-3-yl)-3,4-dihydroquinoxaline-1(2H)-carboxamide] the IC50 was 1 to 10 µM.
With `CN1CC[C@@H](NC(=O)N2CCN(Cc3ccccc3)c3ccccc32)C1` [Compound 34, (R)-4-benzyl-N-(1-methylpyrrolidin-3-yl)-3,4-dihydroquinoxaline-1(2H)-carboxamide] the IC50 was 1 to 10 µM.
In the case of `CN[C@H]1CCN(C(=O)N2CCN(Cc3ccccc3)c3ccccc32)C1` [Compound 36, (S)-(4-benzyl-3,4-dihydroquinoxaline-1(2H)-yl)(3-(methylamino)pyrrolidin-1-yl)methanone], the IC50 is reported as 10 to 30 µM.
In the case of `N[C@H]1CCN(C(=O)N2CCN(Cc3ccccc3F)c3ccccc32)C1` [Compound 37, (S)-(3-aminopyrrolidin-1-yl)(4-(2-fluorobenzyl)-3,4-dihydroquinoxaline-1(2H)-yl)methanone], the IC50 is reported as 1 to 10 µM.
In the case of `CN[C@H]1CCN(C(=O)N2CCN(Cc3ccccc3F)c3ccccc32)C1` [Compound 38, (S)-(4-(2-fluorobenzyl)-3,4-dihydroquinoxaline-1(2H)-yl)(3-(methylamino)pyrrolidin-1-yl)methanone], the IC50 is reported as 1 to 10 µM.
With `N[C@H]1CCN(C(=O)N2CCN(Cc3cccc(F)c3)c3ccccc32)C1` [Compound 39, (S)-(3-aminopyrrolidin-1-yl)(4-(3-fluorobenzyl)-3,4-dihydroquinoxaline-1(2H)-yl)methanone] the IC50 was < 1 µM.
`CC(C)N[C@H]1CCN(C(=O)N2CCN(Cc3ccc(F)cc3)c3ccccc32)C1` [Compound 42, (S)-(4-(4-fluorobenzyl)-3,4-dihydroquinoxaline-1(2H)-yl)(3-(isopropylamino)pyrrolidin-1-yl)methanone] was tested, and the IC50 was 1 to 10 µM.
`CN(C)[C@H]1CCN(C(=O)N2CCN(Cc3ccccn3)c3ccccc32)C1` [Compound 46, (S)-(3-(dimethylamino)pyrrolidin-1-yl)(4-(pyridin-2-ylmethyl)-3,4-dihydroquinoxaline-1(2H)-yl)methanone] was tested, and the IC50 was ≤ 30 µM.
In the case of `CC(C)N[C@H]1CCN(C(=O)N2CCN(Cc3ccccn3)c3ccccc32)C1` [Compound 47, (S)-(3-(isopropylamino)pyrrolidin-1-yl)(4-(pyridin-2-ylmethyl)-3,4-dihydroquinoxaline-1(2H)-yl)methanone], the IC50 is reported as ≤ 30 µM.
For `O=C(NC[C@H]1CCCN1)N1CCN(Cc2ccccn2)c2ccccc21` [Compound 52, (R)-4-(pyridin-2-ylmethyl)-N-(pyrrolidin-2-ylmethyl)-3,4-dihydroquinoxaline-1(2H)-carboxamide], the IC50 was 1 to 10 µM.
`O=C(NC1CCNCC1)N1CCN(Cc2ccccn2)c2ccccc21` [Compound 53, N-(piperidin-4-yl)-4-(pyridin-2-ylmethyl)-3,4-dihydroquinoxaline-1(2H)-carboxamide] showed an IC50 of 1 to 10 µM.
With `O=C(NC1COC1)N1CCN(Cc2ccccn2)c2ccccc21` [Compound 54, N-(oxetan-3-yl)-4-(pyridin-2-ylmethyl)-3,4-dihydroquinoxaline-1(2H)-carboxamide] the IC50 was < 1 µM.
For `CC1(NC(=O)N2CCN(Cc3ccccn3)c3ccccc32)COC1` [Compound 55, N-(3-Methyloxetan-3-yl)-4-(pyridin-2-ylmethyl)-3,4-dihydroquinoxaline-1(2H)-carboxamide], the IC50 was < 1 µM.
With `O=C(NCC1COC1)N1CCN(Cc2ccccn2)c2ccccc21` [Compound 56, N-(oxetan-3-ylmethyl)-4-(pyridin-2-ylmethyl)-3,4-dihydroquinoxaline-1(2H)-carboxamide] the IC50 was 10 to 30 µM.
With `CC1(CNC(=O)N2CCN(Cc3ccccn3)c3ccccc32)COC1` [Compound 57, N-((3-methyloxetan-3-yl)methyl)-4-(pyridin-2-ylmethyl)-3,4-dihydroquinoxaline-1(2H)-carboxamide] the IC50 was ≤ 30 µM.
`O=C(NCC1CCOC1)N1CCN(Cc2ccccn2)c2ccccc21` (stereo not shown) [Compound 58, 4-(pyridin-2-ylmethyl)-N-((tetrahydrofuran-3-yl)methyl)-3,4-dihydroquinoxaline-1(2H)-carboxamide] was tested, and the IC50 was < 1 µM.
`O=C(NC[C@@H]1CCOC1)N1CCN(Cc2ccccn2)c2ccccc21` [Compound 59, (S)-4-(pyridin-2-ylmethyl)-N-((tetrahydrofuran-3-yl)methyl)-3,4-dihydroquinoxaline-1(2H)-carboxamide] was tested, and the IC50 was < 1 µM.
Work on `O=C(NC[C@H]1CCOC1)N1CCN(Cc2ccccn2)c2ccccc21` [Compound 60, (R)-4-(pyridin-2-ylmethyl)-N-((tetrahydrofuran-3-yl)methyl)-3,4-dihydroquinoxaline-1(2H)-carboxamide] yielded an IC50 of 10 to 30 µM.
